Data on seven molecules can be found in US8673289B2, “Attenuated uracil auxotroph of an apicomplexan and use thereof” (priority 2007, dated 2014).

For one assay, the system named is FUDR-1 mutant parasites. The experiment in a line: labeling of FUDR-1 (UPRT knock-out) parasites with [3H]pyrimidines. The assay is classed as cell-based, Toxoplasma gondii. The procedure: (§1) Initial experiments primarily involved an enzymatic analysis of drug resistant mutants and the incorporation of various pyrimidine analogs into T. gondii RNA and DNA as an indication of pyrimidine salvage when parasites were grown in either normal host or mutant host cells. All biochemical communications between the parasite and host cells cross the vacuolar membrane which is now known to contain “pores” that permit the passage of nucleobases ranging in molecular mass from 112 daltons up to 244 daltons. The size of the pores is estimated to be approximately 1500 daltons. A T. gondii mutant resistant to 5-fluorodeoxyuridine (FUDR-1) had lost uracil phosphoribosyltransferase (UPRT), an enzyme which is absent in normal host cells (Pfefferkorn (1978) Expt. Parasitol. 44:26-35). […] FUDR-1 mutant parasites were not labeled with [^3H]deoxyuridine. […] FUDR-1 mutant parasites were not labeled with [^3H]uridine. […] FUDR-1 (UPRT knock-out) parasites were not labeled with [^3H]uracil.

In the next assay the test system is wild-type T. gondii. In words: labeling of parasites with [3H]pyrimidines (pyrimidine salvage). The assay is classed as cell-based, Toxoplasma gondii. Conditions: parasites grown in host cells. The protocol:
as §1
Similarly, since uracil only labels the parasite, due to the parasite UPRT, which is absent in the host, the pyrimidine pools of the parasite are also unavailable to the host. Thus, there is no detectable pyrimidine traffic detected between the parasite and host.

The next assay concerns cps1-1 and cps2-1. In words: pyrimidine rescue of cps1-1 and cps2-1 replication and plaque formation. Type of assay: cell-based, Toxoplasma gondii. To be noted: for rescue of replication (doublings) of cps1-1 and cps2-1: 36-hour replication assay, HFF; for rescue of plaque formation of cps1-1 and cps2-1: plaque assay. The protocol: No pyrimidine compound at less than 25 μM could rescue plaque formation of cps1-1 or cps2-1. […] Uridine was quite poor at rescue of plaque formation in cps1-1 and cps2-1.
A more detailed growth response to pyrimidine, measured as parasite replications (doublings) was performed for cps1-1 and cps2-1 and compared to the results previously obtained for […]. […] Uridine rescue was poor, with a slow restoration of growth at very high amounts, >400 μM. Deoxyuridine rescue was significant, but again, full growth rate was not restored at any concentration of deoxyuridine. Rescue with uracil was robust, but only in a limited range of concentration. Full restoration of growth rate in cps1-1 and cps2-1 was possible only with uracil added between 200 and 400 μM. […] This phenotype can only be observed in T. gondii pyrimidine auxotroph mutants, not in wild-type parasites with intact de novo pyrimidine synthesis pathways.
The pyrimidine growth dependence of mutant cps1-1 on the pyrimidine salvage pathway was further documented in thymidine interference experiments. Mutant cps1-1 plaques well in 250 μM uracil or deoxyuridine, but not in 1000 μM thymidine. Since thymidine at 1000 μM is known to inhibit approximately 90% of the parasite nucleoside phosphorylase activity specific for cleavage of deoxyuridine (Iltzsch, (1993) J. Euk. Micro. 40:24-28), growth of cps1-1 was tested in combinations of 1000 μM thymidine and 250 μM uracil or 250 μM deoxyuridine. All pyrimidine salvage in T. gondii must pass through uracil and UPRT conversion of uracil to UMP. In contrast, thymidine has no effect on UPRT activity. Thus, if growth of cps1-1 were dependent on deoxyuridine supplementation then replication in this condition may be inhibited by co-supplementing with 1000 μM thymidine. […] Thus, when cps1-1 is grown in deoxyuridine the parasite strictly requires nucleoside phosphorylase activity to cleave deoxyuridine for growth. […] Thus, cps1-1 and cps2-1 rely strictly on pyrimidine salvage enzymes for growth and further, the HFF host cell in vitro cannot supply sufficient pyrimidines for growth of cps1-1 or cps2-1. […] Such potential inhibitors can only be identified using a pyrimidine auxotroph such as provided in the instant invention.
To assess reversion, 10^6 to 10^7 cps1-1 or cps2-1 parasites were periodically inoculated into HFF flasks supplemented with 5 μM uridine. This concentration of uridine is sufficient to rescue the parent strains (cps1 and cps2) of cps1-1 and cps2-1.

The subject of a further assay is cps1 and cps2 mutants. In words: pyrimidine dependence of cps1 and cps2 replication and plaque formation. Type of assay: cell-based, Toxoplasma gondii. To be noted: for rescue of growth rate / replication of cps1 and cps2: relatively low (thymine, thymidine: moderate) concentrations in medium. From the text:
However, all of these mutants are somewhat “leaky” in that there was not an absolute growth (replication) dependence on uracil addition to the growth medium for replication. Each of these mutants grows at a moderate (½ of normal) growth rate for the first 2 days following infection of a host cell producing vacuoles that contained 16 to 32 parasites by 3 days post infection. In contrast, RH parasites are lysed out of their primary vacuoles at this time (3 days, >64 parasites). However, the cps mutants slow after 3 days and many parasites never (about ⅓) break out of their primary vacuole. If the primary vacuole breaks, a few parasites can be detected at the site of infection but the infection site always involves a small zone of infection that never forms a visible plaque in a standard 7 day plaque assay. To quantitate growth of these mutants, HFF flasks were inoculated with […] or cps2 parasites (about a multiplicity of infection (MOI) of 1 parasite per 20 HFF cells). After 2 hours of attachment and invasion (all of these mutants have normal attachment and invasion phenotypes as scored by counting percent entered parasites into host cells as a function of time post-inoculation), different concentrations of different pyrimidine compound was added to parallel infected HFF flasks. As a function of time post pyrimidine addition (t=0 hour) the number of parasites per vacuole was scored for 50 vacuoles as described by Fox et al. ((1999) supra). The number of parasite doublings was calculated based on 1 parasite entering each primary vacuole. Thus, 1 doubling=2 parasites per vacuole, 3 doublings=8 parasites per vacuole, and 5 doublings=32 parasites per vacuole. The pyrimidine dependence of cps1 and cps2 replication (doublings of parasites in the vacuole) was plotted graphically. […] The response to thymine and thymidine was additionally informative about the cause of the growth defect in cps1 and cps2. […] This is believed to be caused by the putative defect in the cps1 and cps2 mutants which is a reduced “pool” size of UMP. If UMP pools (ultimately used for RNA and DNA synthesis) are lowered it follows that a resulting decrease in TMP pools is expected since UMP is the precursor of TMP in T. gondii and all other apicomplexan parasites which normally lack TK activity. However, since cps1 and cps2 now express a TK activity carried into the parasite by the p53KOX3-1R plasmid, exemplified by sensitivity of these mutants to ganciclovir (specific to HSV TK), feeding parasites either thymine or thymidine is expected to increase TMP pools. Thus, it appears that moderate levels of thymine or thymidine partially rescue growth of cps1 and cps2 by restoring TMP pools. […] Since the parasite has no mechanism to convert TMP back to UMP there is still a defect in the UMP pool in cps1 and cps2 even with added thymine or thymidine and rescue is never complete. The ability of cps1 and cps2 mutants to form plaques on HFF monolayers in the standard 7 day assay paralleled the pyrimidine dependence of parasite replication in vacuoles.
The cps1 and cps2 mutants were inoculated intraperitoneally (i.p.) into balb/c mice to measure parasite virulence compared to virulent RH parasites. Both mutant cps1 and cps2 had equal virulence as RH parasites in balb/c mice (Jackson Labs), killing all mice within 10 days of i.p. inoculation (group size was four mice per parasite strain). Only 100 parasites (˜50 PFU) of each parasite strain was needed to kill all mice in each group. This pattern of virulence can be understood by re-examining the pyrimidine dependence of cps1 and cps2 growth. Uridine is believed to be the pyrimidine responsible for virulence of cps1 and cps2 in mice. Only 5 μM uridine completely rescues normal plaque size of cps1 and cps2 in vitro. Plasma concentrations of uridine in mice are approximately 5 to 10 μM.

Another assay concerns mammalian CPSII. To be noted: hamster CPSII; cited from earlier work.
Assay [1] deals with parasite nucleoside phosphorylase activity specific for cleavage of deoxyuridine. To be noted: thymidine at 1000 μM; cited from earlier work.

On to `O=c1ccn([C@H]2C[C@H](O)[C@@H](CO)O2)c(=O)[nH]1` [deoxyuridine], for which the “labeling of FUDR-1 mutant parasites with [3H]pyrimidine” value in the assay with FUDR-1 mutant parasites is “not labeled”. Further, the “incorporation of [3H]-labeled pyrimidine into wild-type parasites” value (“incorporation” below) in the assay with wild-type T. gondii is on record as “incorporated into wild-type T. gondii”. Moreover, the “plaque formation of cps1-1” value with cps1-1 and cps2-1 (250 μM supplement) is listed as “plaques well”. Besides, in the assay with cps1-1 and cps2-1, the “rescue of replication (doublings) of cps1-1 and cps2-1” value is “significant”; the “rescue of plaque formation of cps1-1 and cps2-1” value is “significant growth rescue”. Also, in the assay with cps1 and cps2 mutants, the “rescue of growth rate / replication of cps1 and cps2” value is “completely rescued”.
For the molecule `O=c1ccn([C@@H]2O[C@H](CO)[C@@H](O)[C@H]2O)c(=O)[nH]1` [uridine], the “labeling of FUDR-1 mutant parasites with [3H]pyrimidine” value in the assay on FUDR-1 mutant parasites was “not labeled”. In addition, the “incorporation” value in the assay with wild-type T. gondii is reported as “incorporated into wild-type parasites”. In addition, the “support of growth of cps1-1 or cps2-1” value in the assay with cps1-1 and cps2-1 (5 μM uridine) is on record as “insufficient to support any growth”. Moreover, in the assay on cps1-1 and cps2-1, the “rescue of replication (doublings) of cps1-1 and cps2-1” value was “poor”; the “rescue of plaque formation of cps1-1 and cps2-1” value is on record as “quite poor”. Further, the “uridine concentration giving slow restoration of growth” value with cps1-1 and cps2-1 (cps1-1, cps2-1) is above 400 µM. Besides, the “uridine concentration that rescues cps1 and cps2 (normal plaque size)” value in the assay on cps1 and cps2 mutants (in vitro) is 5 µM. In addition, the “rescue of growth rate / replication of cps1 and cps2” value in the assay on cps1 and cps2 mutants was “completely rescued”.
With “H. a. S1345A: hamster CPSII with regulatory domain serine to alanine mutation”, the “Effect on CPS or CPSII” value in the assay on mammalian CPSII is reported as “Reduces PRPP activation”.
For `Nc1ccn([C@@H]2O[C@H](CO)[C@@H](O)[C@H]2O)c(=O)n1` [cytidine], in the assay on wild-type T. gondii, the “incorporation” value is “did not incorporate”. Further, the “rescue of replication (doublings) of cps1-1 and cps2-1” value in the assay on cps1-1 and cps2-1 is recorded as “remained as a single non-replicated parasite”. In addition, the “rescue of growth rate / replication of cps1 and cps2” value in the assay with cps1 and cps2 mutants was “completely rescued”.
Consider “H. a. T456A: mammalian (hamster) CPSII with MAPK site mutation T456A”, for which the “Effect on CPS or CPSII” value with mammalian CPSII is given as “Abolishes MAPK activation”.
On to `Nc1cc[nH]c(=O)n1` [cytosine], for which the “incorporation” value with wild-type T. gondii was “did not incorporate”. The “rescue of replication (doublings) of cps1-1 and cps2-1” value in the assay with cps1-1 and cps2-1 is listed as “remained as a single non-replicated parasite”. Besides, the “rescue of growth rate / replication of cps1 and cps2” value in the assay on cps1 and cps2 mutants is listed as “did not rescue at all”.
Take `Cc1cn([C@H]2C[C@H](O)[C@@H](CO)O2)c(=O)[nH]c1=O` [thymidine]: in the assay with wild-type T. gondii, the “incorporation” value is “did not incorporate”. Further, the “plaque formation of cps1-1” value with cps1-1 and cps2-1 (1000 μM thymidine) is given as “not”. Moreover, in the assay on cps1-1 and cps2-1 (1000 μM thymidine plus 250 μM deoxyuridine), the “effect on deoxyuridine-dependent growth of cps1-1” value is reported as “did block”. Also, the “effect on UPRT or uracil dependent growth of cps1-1” value with cps1-1 and cps2-1 (1000 μM thymidine plus 250 μM uracil) is “did not affect”. In addition, in the assay on cps1-1 and cps2-1, the “rescue of replication (doublings) of cps1-1 and cps2-1” value is recorded as “remained as a single non-replicated parasite”; the “rescue of plaque formation of cps1-1 and cps2-1” value is reported as “no response was detected”. For the same molecule, the “inhibition of parasite nucleoside phosphorylase activity” value in assay [1] is “approximately 90%”. Besides, the “rescue of growth rate / replication of cps1 and cps2” value in the assay with cps1 and cps2 mutants was “partially rescued”. Further, the “rescue of replication of cps1 and cps2” value in the assay on cps1 and cps2 mutants (very high concentrations) is “did not rescue replication”.
